Here are results for three compounds from patent US20250257077A1, “BRIDGED BICYCLIC HETEROCYCLOALKYL PYRIDO-[3,4-d]PYRIDAZINE AMINE DERIVATIVES USEFUL AS NLRP3 INHIBITORS” (Ventus Therapeutics U.S., Inc., priority 2022, published 2025).

Converted amounts (≈) assume the structure as drawn.

The nature of series [1]: Brain Levels (Kp and Kpu,u). In kind it is in vivo, CDI mice. The conditions noted are these: CDI, mouse, brain (whole brain homogenate) relative to plasma, po, 20 mg/kg; for Kpu,u: Kp corrected with mouse plasma protein binding and mouse brain homogenates binding, 20 mpk PO, read-out: Kpu,u; for Kp at 24 h: mice dosed at 20 mpk PO, whole brain AUC over 24 h divided by plasma AUC. The method, then: (iv) Brain Levels (Kp and Kpu,u)—NLRP3
The in vivo total brain to plasma ratio was assessed in CDI mice after oral administration of the compound. Blood was collected at several timepoints up to 24 h, and transferred into plastic micro centrifuge tubes with EDTA-K2 as anticoagulant. Blood samples were centrifuged at 4000 g for 5 minutes at 4° C., to obtain plasma, then immediately frozen and stored at −75±15° C., prior to analysis. Animals were terminally anaesthetized with a rising concentration of CO2 gas at about 1 minute. At selected timepoints, whole brains were removed from the skull, rinsed in cold PBS to remove blood, dried with clean gauze, then frozen in liquid nitrogen and kept at −75±15° C. before analysis. At the time of analysis, brain samples were homogenized with PBS by tissue weight (g) to PBS volume (mL) ratio 1:3.
Plasma and brain drug levels were quantified by LC/MS/MS on an AB Sciex Triple Quad 5500+instrument, after separation on a HALO 160 A ES-C18, 2.7 μm 2.1×50 mm column. Quantitation was performed using a calibration curve prepared in blank plasma or blank brain homogenate. The software WinNonlin (Phoenix™) was used for pharmacokinetic analysis from the concentrations versus time data, including the AUCinf and AUClast. The Kp ratio (total brain concentration over total plasma concentration) was calculated as (AUCtot,br)/(AUCtot,pl).
The unbound brain exposure was assessed as Kpuu, which is the free brain/free plasma concentration ratio (Cu,bt/Cu,pl). The Cu,br/Cu,pl ratios were obtained from in vivo total brain to plasma ratios (Ctot,br/Ctot,pl) by using in vitro determined Fu,br and Fu,pl.
Plasma protein binding and brain homogenate protein binding were measured by equilibrium dialysis in a HTDialysis plate. The dialysis membranes were soaked in ultrapure water for 60 minutes to separate strips, then in 20% ethanol for 20 minutes, finally in dialysis buffer for 20 minutes. The dialysis set up was assembled according to the manufacturer's instruction. Each cell received 150 μL of plasma or brain homogenate spiked with 1 mM of compound, and dialyzed against an equal volume of dialysis buffer (PBS). The dialysis plate was sealed and incubated in an incubator at 37° C. with 5% CO2 at 100 rpm for 6 hours. At the end of incubation, compound concentration was measured in both chambers by LC-MS/MS on a Triple Quad™ 5500 from AB Inc after separation on a XSelect Hss T3.2.5μ (2.1×30 mm) column. Free fraction (Fu) was calculated as (Peak Area Ratio buffer chamber/Peak Area Ratio plasma chamber). Kpuu=(AUCtot,br×Fu,br)/([…])
The Kpu,u was then calculated upon correcting this kp value with mouse plasma protein binding and mouse brain homogenates binding.
A Kpu,u value >0.3 is considered brain penetrant, and a Kpu,u value ≤0.3 is not considered brain penetrant. When the Kpu,u value is not determined, the Kp value may be useful as a metric of potential brain penetrance if the Kp value is >0.3.

Series [2] can be described thus: Solubility Protocol in Phosphate Buffered Saline (PBS). In kind it is physicochemical. The conditions noted are these: kinetic solubility, PBS pH 7.4, 2 hours at room temperature; for solubility kinetic at 2 h: phosphate buffered saline (PBS), 18 °C, aqueous buffer, kinetic from dmso stock. The method, then: (vi) Solubility Protocol in Phosphate Buffered Saline (PBS)
The kinetic solubility of test compounds and control compounds was measured in commercial phosphate buffered saline (PBS), pH 7.4 (Wisent, Canada).
Briefly, a stock solution (20 mM DMSO for controls, and 10 mM DMSO for test compounds) was combined with PBS buffer to reach a targeted concentration of 400 μM for controls and 200 μM for test compounds. The spiked-PBS mixtures were then agitated on a VX-2500 multi-tube vortexer (VWR) for 2 hours at room temperature (18° C.). Following agitation, the samples were filtered on a glass fiber filter (1 μm) and the eluates were diluted 400-fold with a mixture of acetonitrile:water (1:1). Solubility determination was then performed against one standard sample prepared in high organic content at the expected top concentration. The lower limit of quantification was arbitrarily set at 1 μM (400-fold dilution of the top concentration) for assay controls, and 0.5 μM for test compounds. On each experimental run, nicardipine and imipramine were assessed as reference compounds for low and high solubility, respectively. All samples were assessed in triplicate and analyzed by LC-MS/MS (using a CTC PAL autosampler, Thermo Accela UPLC, and a Thermo Quantum mass spectrometer) using electrospray ionization against standards prepared in the same matrix

Series [3] is described as follows: Mouse Hepatocyte Stability Assay. In kind it is in vitro ADME. Conditions: mouse hepatocytes, 37° C.; read-out: Hep (mouse) (t½ min). The method, then:
(§1) (v) Mouse and Human Hepatocyte Stability Assays
(§2) A hepatocyte stability assay is a laboratory-based method used to determine the metabolic stability of a compound in hepatocytes (liver cells). This assay provides valuable information about how quickly a drug is metabolized in the liver and can be used to assess its potential effectiveness and safety in drug discovery.
(§3) In the assay, cither human or mouse hepatocytes are incubated with the test compound at a controlled temperature of 37° C., for different time periods (e.g., 5, 15, 30, 60, and 120 minutes). At each time point during the incubation, samples are taken, the reaction is terminated, and the amount of test compound remaining analyzed using LC-MS/MS to monitor the disappearance of the test compound over time (Gradient). […] See, e.g., Coe et al., Methods in Pharmacology & Toxicology (2008) 151.

Series [4] is described as follows: Human Hepatocyte Stability Assay. In kind it is in vitro ADME. The conditions noted are these: human hepatocytes, 37° C.; read-out: Hep (human) (t½ min). The method, then:
as §1, §2, §3

The target of series [5] is T1, human NLRP3 (Homo sapiens, UniProt Q96P20).
T1 construct: Human whole blood is drawn from healthy volunteers after obtaining written informed consent; from tissue
The experiment in a line: Human Whole Blood (hWB) NLRP3 Assay. In kind it is cell-based. Conditions: LPS priming, ATP activation, IL-1β levels. The method, then: (ii) Human Whole Blood (hWB) NLRP3 Assay
Human whole blood is drawn from healthy volunteers after obtaining written informed consent. Heparin lithium coated tubes are used to collect blood from volunteers. Blood samples are distributed on 96 well plates using 90 μl per well. Priming is performed by adding 5 μl of LPS (026: B6; Sigma L-2654) at a final concentration of 1 μg/ml for 4.5 hours in a humidified incubator with 37° C. 5% CO2. Thirty minutes prior to NLRP3 activation, 5 μl of a 20× compound solution or vehicle (2% dimethylsulfoxide (DMSO)) is added to each well and plates were incubated on a shaker (450 rpm) in a humidified incubator with 37° C., 5% CO2. Activation is then performed by adding 3.3 μl of a 31× ATP solution per well. At the end of the 30 minutes stimulation, the plates are centrifuged (800 g, 10 min, room temperature) and the plasma from each well is frozen at −80° C. IL-1β levels in the supernatant were analyzed using a mesoscale discovery assay (MSD K151TUK) according to the manufacturers’ instructions.

T1 sequence (Q96P20 whole entry): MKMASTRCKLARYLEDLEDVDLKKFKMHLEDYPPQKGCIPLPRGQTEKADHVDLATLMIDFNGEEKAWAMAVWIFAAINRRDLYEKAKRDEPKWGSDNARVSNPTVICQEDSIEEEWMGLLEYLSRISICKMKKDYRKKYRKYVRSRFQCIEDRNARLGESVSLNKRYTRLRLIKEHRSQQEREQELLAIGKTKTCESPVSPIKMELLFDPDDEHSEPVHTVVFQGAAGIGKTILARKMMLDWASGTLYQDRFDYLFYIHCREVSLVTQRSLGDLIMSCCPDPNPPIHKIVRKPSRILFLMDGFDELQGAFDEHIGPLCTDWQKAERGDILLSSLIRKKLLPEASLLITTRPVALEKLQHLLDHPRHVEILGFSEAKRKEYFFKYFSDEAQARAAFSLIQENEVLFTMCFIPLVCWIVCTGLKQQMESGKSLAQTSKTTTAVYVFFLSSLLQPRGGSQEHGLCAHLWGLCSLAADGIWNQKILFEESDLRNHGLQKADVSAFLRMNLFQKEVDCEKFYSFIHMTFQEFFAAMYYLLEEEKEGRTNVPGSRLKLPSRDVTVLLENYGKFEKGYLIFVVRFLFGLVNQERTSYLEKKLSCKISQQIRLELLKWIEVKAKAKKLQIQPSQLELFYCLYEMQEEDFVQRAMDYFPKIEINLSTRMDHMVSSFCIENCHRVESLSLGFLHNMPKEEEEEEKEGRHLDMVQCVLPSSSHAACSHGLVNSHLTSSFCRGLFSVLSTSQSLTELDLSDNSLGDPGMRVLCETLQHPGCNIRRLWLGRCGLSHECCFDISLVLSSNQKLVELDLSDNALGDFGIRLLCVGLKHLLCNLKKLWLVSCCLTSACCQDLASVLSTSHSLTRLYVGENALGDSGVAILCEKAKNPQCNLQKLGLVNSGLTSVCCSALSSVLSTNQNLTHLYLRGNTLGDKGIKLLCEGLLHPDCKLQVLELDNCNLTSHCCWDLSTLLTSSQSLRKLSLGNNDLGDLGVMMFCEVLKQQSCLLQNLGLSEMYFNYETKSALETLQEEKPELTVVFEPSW

A word on the Kp: it is tissue or fluid exposure divided by exposure in the circulation. One may read the solubility (kinetic) as the concentration staying in solution when a stock, usually in DMSO, is diluted into the medium. As usually defined, the IC50 is the concentration that inhibits the measured activity by half. A lower IC50 goes with greater potency. As to `Oc1cc(C(F)(F)F)ccc1-c1nnc(N[C@H]2[C@@H]3CC[C@H]2COC3)c2cnccc12` [Compound 13A, 2-(4-(((1R,5S,8s)-3-oxabicyclo[3.2.1]octan-8-yl)amino)pyrido[3,4-d]pyridazin-1-yl)-5-(trifluoromethyl)phenol], in series [1], the Kpu,u amounted to 0.08 and the partition ratio (Kp) at 24 h was found to be 0.1. Moreover, in series [2], the “Sol (PBS)” value stood at 1.4 µM and the kinetic solubility at 2 h worked out at 1.4 µM (≈ 0.583 µg/mL). Also, the half-life in series [3] stood at 1.67 h. The half-life in series [4] was determined as 4.83 h. The same compound came in with an IC50 in series [5] of 0.34 µM.

On to `Oc1cc(C(F)F)ccc1-c1nnc(N[C@H]2[C@@H]3CC[C@H]2COC3)c2cnccc12` [Compound 14A, 2-(4-(((1R,5S,8s)-3-oxabicyclo[3.2.1]octan-8-yl)amino)pyrido[3,4-d]pyridazin-1-yl)-5-(difluoromethyl)phenol], for which, in series [1], the Kpu,u was determined as 0.2 and the Kp at 24 h is 0.37. Moreover, in series [2], the “Sol (PBS)” value turned out to be 11 µM and the solubility (kinetic) at 2 h is 11 µM (≈ 4.38 µg/mL). The half-life in series [3] stood at 2 h. For the same compound, in series [4], the half-life was more than 8 h. Also, the midpoint of inhibition in series [5], the IC50, lay at 0.2 µM.

Turning to `Cc1ccc(-c2nnc(N[C@H]3[C@@H]4CC[C@H]3COC4)c3cnccc23)c(O)c1F` [Compound 15A, 6-(4-(((1R,5S,8s)-3-oxabicyclo[3.2.1]octan-8-yl)amino)pyrido[3,4-d]pyridazin-1-yl)-2-fluoro-3-methylphenol], in series [1], the Kpu,u worked out at 0.45 and the Kp at 24 h amounted to 0.41. In addition, in series [2], the “Sol (PBS)” value is more than 300 µM and the kinetic solubility at 2 h was more than 300 µM. Moreover, the half-life in series [3] was 0.483 h. In series [4], the half-life is more than 8 h. Further, in series [5], the 50% inhibitory concentration (IC50) came to 0.34 µM.
